Key:
[1] = test system: lipid peroxidation (MDA formation) in brain homogenates; test: MDA formation triggered non-enzymatically by ferrous sulfate in rat brain homogenates (antioxidant activity); type: biochemical, S-D rat; conditions: brain homogenate, 60 min 37° C
Protocol: (§1) The antioxidant activity was tested in vitro by the test of formation of malondialdehyde (MDA) which measures lipid peroxidation triggered: either a) non-enzymatically by ferrous sulfate, in 1) brain homogenates, or 2) rat liver microsomes or b) enzymatically by NADPH and carbon tetrachloride in rat liver microsomes.
1.1-MDA formation was measured on 10-fold diluted (V/V) homogenates of brains of S-D (200 g), prepared in Krebs buffer pH 7.4 by the conditions described in J. Biol. Chem. Vol., 262 (1987), p. 10438 to 10440. 1 ml of homogenate was incubated for 60 minutes at 37° C. in the presence of 25 microliters of ethanol or water or a mixture of the two, depending on the product, containing or not containing the test product, after the addition of 25 microliters of ferrous sulfate solution prepared immediately before use in water outgassed with argon ([…]). 0.25 ml of incubated mixture was withdrawn and 1.5 ml of 1% strength phosphoric acid, 0.25 ml of a solution containing 200 microliters of deferoxamine (Desferal®, Ciba Geigy) in water, 10 microliters of butylated hydroxytoluene (BHT) at a concentration of 8.7 mg/ml in ethanol and 0.5 ml of thiobarbituric acid (TBA) at a concentration of 0.6% in water were added. The mixture was heated to 100° C. for 45 minutes and cooled. 4 ml of n-butanol were added and the mixture was centrifuged for 15 minutes at 4000 rpm and the OD of the supernatant fraction was then read at 535 nm. The reaction blanks in the absence of Fe^++ were incubated under the same conditions. The percentage inhibition was calculated as follows: […]

[2] = test system: lipid peroxidation (MDA formation) in rat liver microsomes; test: MDA formation triggered enzymatically by NADPH and carbon tetrachloride in liver microsomes of phenobarbital-pretreated rats (antioxidant activity); type: biochemical; conditions: NADPH/CCl4
Protocol: as §1
2-MDA formation was measured on liver microsomes of rats pretreated with phenobarbital (80 mg/kg in 3 i.p. injections), prepared as described above. The microsomes were incubated for 15 minutes at 37° C. in 1 ml containing 0.1M pH 7.4 phosphate buffer, 1 mg of microsomal protein, 5 microliters of ethanol containing or not containing the test product and 5 microliters of carbon tetrachloride (5.5 mM final) after the addition of 50 microliters of NADPH solution in the phosphate buffer (1 mM final). The reaction was stopped and the assay was then performed under the conditions described above.

[3] = test system: lipid peroxidation (MDA formation) in rat liver microsomes; test: MDA formation triggered non-enzymatically by ferrous sulfate in rat liver microsomes (antioxidant activity); type: biochemical, S-D rat; conditions: 15 min 37° C
Protocol: as §1
1.2-MDA formation was measured on liver microsomes of S-D rats (200 g)
prepared from the fraction sedimented at 100,000 G of a liver homogenate
in a sucrose buffer, of which the fraction remaining insoluble at 100,000
G in 100 mM sodium pyrophosphate buffer pH 7.4 was used and which was
homogenized in 100 mM sodium phosphate buffer pH 7.4 containing 20% of
glycerol and then stored at -80° C.
The microsomes were incubated for 15 minutes at 37° C. in 1 ml containing 35 mM Tris-HCl buffer/0.1M KCl pH 7.4, 1 mg of microsomal protein, 5 microliters of ethanol containing or not containing the test product and 250 microliters of ascorbate solution in the Tris buffer (0.5 mM final), after the addition of 250 microliters of ferrous sulfate prepared immediately before use in the Tris buffer ([…]). The reaction was stopped by adding 2 ml of a 1M solution of trichloroacetic acid in 0.25M hydrochloric acid containing 0.4% of thiobarbituric acid. The mixture was heated to 85° C. for 25 minutes, cooled and centrifuged for 15 minutes at 3500 rpm, and the OD of the supernatant fraction was then read at 535 nm. The reaction blanks in the absence of Fe^++ were performed at the same time and the percentage inhibition was calculated as above.

[4] = test system: ferric nitrilotriacetate (NTA-Fe+++) intoxication in rats; test: Detoxifying activity in vivo: mortality induced in rats by ferric nitrilotriacetate (NTA-Fe+++) intoxication; design: species or system Wistar male rat; conditions: 5 mg/kg i.p. 30 minutes before 15 mg/kg of poison (NTA-Fe+++, mg of iron/kg); none alive after 4 hours with poison alone
Protocol: The detoxifying activity after intoxication associated with lipid peroxidaton was tested for by measurement of the mortality induced in rats by ferric nitrilotriacetate (NTA-Fe^+++) intoxication. A solution of NTA-Fe^+++ complex was prepared immediately before use, suspended in sesame oil and injected intraperitoneally at doses of 5, 10 or 15 mg of iron/kg of body weight into non-fasted Wistar male rats weighing approximately 200 g. The survival rate of rats which received a prior injection of the test product at a dose of 5 mg/kg intraperitoneally, 30 minutes before the injection of 15 mg/kg of poison was determined. Whereas none of the animals treated with the poison alone survived after 4 hours, 20% of the animals pretreated with the product of Example 2 were still alive 15 days later.

[5] = test system: arachidonic acid-induced plantar oedema; test: Arachidonic acid-induced plantar oedema (anti-inflammatory activity); type: in vivo, Sprague-Dawley male rat; conditions: for Change in volume of the foot 1 hour after AA (mean ± s.e.m.): controls 0.58 ± 0.03; for % inhibition: oedema, relative to control
Protocol: The anti-inflammatory activity was assessed in vivo by measurement of the anti-oedematous activity in the test of arachidonic acid-induced plantar oedema described by Di Martino et al. (Agents and Actions, 1987 21 3/4 303). The experimental animals were Sprague-Dawley strain SPF male rats weighing 150 to 170 g (Iffa Credo).
This test was performed on groups of 8 male rats weighing 130 to 150 g, fasted for 16 hours. Arachidonic acid was injected under the plantar aponeurosis of one hindfoot at a dose of 0.2 mg in a volume of 0.1 ml. The volume of the foot was measured using a water plethysmometer before and 1 hour after the injection of arachidonic acid. The difference between these two volumes represented the degree of inflammation. The animals were treated with the test products or the vehicle alone at the same time as the injection of arachidonic acid. The test products were administered orally in a volume of 4 ml/kg after being suspended in 0.5% strength methyl cellulose. All the experiments were carried out with dexamethasone administered orally at a dose of 0.5 mg/kg as reference product.
The results were expressed as a change in volume of the foot 1 hour after the injection of arachidonic acid (AA) in the absence or in the presence of the test product administered at different doses. Statistical interpretation of the results was performed according to Dunnett's test (*p<[…]) or according to the Mann-Whitney test (^o p<0.05-^oo p<0.01). For each dose administered orally, the percentage inhibition of the oedema by the test product was calculated relative to the control.

Row | SMILES | percentage of inhibition ([1]; 1 × 10^-4 M) | percentage of inhibition ([1]; 1 × 10^-5 M) | percentage of inhibition ([1]; 5 × 10^-4 M) | percentage of inhibition ([2]; 1 × 10^-5 M) | percentage of inhibition ([2]; 1 × 10^-6 M) | percentage of inhibition ([2]; 5 × 10^-6 M) | percentage of inhibition ([3]; 1 × 10^-5 M) | percentage of inhibition ([3]; 1 × 10^-6 M) | percentage of inhibition ([3]; 5 × 10^-6 M) | animals still alive 15 days later (survival rate) [4] [%] | Change in volume of the foot 1 hour after AA (mean ± s.e.m.) ([5]; 1 mg/kg oral) [cm^3] | Change in volume of the foot 1 hour after AA (mean ± s.e.m.) ([5]; 4 mg/kg oral) [cm^3] | Change in volume of the foot 1 hour after AA (mean ± s.e.m.) ([5]; 20 mg/kg oral) [cm^3] | anti-inflammatory activity ([5]; low doses, oral) | % inhibition ([5]; 1 mg/kg oral) [%] | % inhibition ([5]; 4 mg/kg oral) [%] | % inhibition ([5]; 20 mg/kg oral) [%] | percentage of inhibition ([3]; 1 × 10^-7 M)
1 | CN(C)c1ccc([C@H]2C[C@@]3(C)[C@@H](CC[C@@]3(O)C#CCN3CCN(c4cc(N5CCCC5)nc(N5CCCC5)n4)CC3)[C@@H]3CCC4=CC(=O)CCC4=C32)cc1 [Example 1, 11β-[4-(dimethylamino)-phenyl]-17α-[3-{4-[2,6-bis(1-pyrrolidinyl)-4-pyrimidinyl]-1-piperazinyl}-1-propynyl]-Δ^4,9-estradiene-17β-ol-3-one] | 42.6 ± 7.5 | 9.9 ± 6.4 | 47.5 ± 8.8 | 72 ± 3 | 14 ± 4 | 58 ± 5 | 76 ± 0.8 | 4 ± 0.6 | 47 |  |  |  |  |  |  |  |  | 
2 | CN(C)c1ccc([C@H]2C[C@@]3(C)[C@@H](CC[C@@]3(O)C#CCN3CCN(c4cc(N5CCCC5)nc(N5CCCC5)n4)CC3)[C@@H]3CCC4=CC(=O)CCC4=C32)cc1 [Example 2, 11β-[4-(dimethylamino)-phenyl]-17α-[3-{4-[2,6-bis(1-pyrrolidinyl)-4-pyrimidinyl]-1-piperazinyl}-1-propynyl]-Δ^4,9-estradien-17β-ol-3-one methane sulfonate] | 59.6 ± 4.4 | 16.0 ± 5.0 | 60.9 ± 3.3 | 91 ± 3 | 28 ± 3 | 82 ± 3 | 98.5 | 48 ± 1 | 91 | 20 |  |  |  |  |  |  |  | 
3 | CCN(CC)c1ccc(N2CCN(CC#C[C@]3(O)CC[C@H]4[C@@H]5CCC6=CC(=O)CCC6=C5[C@@H](c5ccc(N(C)C)cc5)C[C@@]43C)CC2)nc1N(CC)CC [Example 3, 11β-[4-(dimethylamino)-phenyl]-17α-[3-{4-[5,6-bis(diethylamino)-2-pyridyl]-1-piperazinyl}1-propynyl]-Δ^4,9-estradiene-17β-ol-3-one] | 49.2 ± 2.3 | 32.6 ± 10.1 | 59.1 ± 3.2 | 97 | 40 ± 1 | 88 ± 2 | 99.9 | 78.2 ± 0.9 | 99.5 |  | 0.48 ± 0.05 | 0.43 ± 0.06 | 0.40 ± 0.04 | significant anti-inflammatory activity | -17 | -27 | -31 | 5.2 ± 1
4 | CCN(CC)c1ccc(N(CC)CC)c(N2CCN(CC#C[C@]3(O)CC[C@H]4[C@@H]5CCC6=CC(=O)CCC6=C5[C@@H](c5ccc(N(C)C)cc5)C[C@@]43C)CC2)n1 [Example 4, 17α-[3-{4-[3,6-bis(diethylamino)-2-pyridyl]-1]-piperazinyl}-1-propynyl]-11β-[4-(dimethylamino)-phenyl-Δ^4,9-estadiene-17β-ol-3-one] | 58.9 ± 10.9 | 48.6 ± 6.2 | 71.8 ± 10.2 |  | 48 ± 3 | 85 ± 2 | 99.5 | 70 ± 2 | 99.4 |  |  |  |  |  |  |  |  | 0 ± 2

— patent US5108996A, “19-nor-3-keto steroids” (Roussel Uclaf, priority 1989, dated 1992)
